For data set [1] the following is noted: cited from earlier work.
The conditions of data set [2]: oral; cited from earlier work.
The nature of data set [3]: Solubility of the drug substance in water, solvents or simulated GI media. It is filed as physicochemical.
Data set [4] deals with Leishmania. The note with it: visceral leishmaniasis, IV therapy; cited from earlier work.

Like-named read-outs stand apart in the source and are kept apart here.

The source of these data is patent publication US8592382B2, “Formulations for the oral administration of therapeutic agents and related methods” (The University of British Columbia, priority 2007, dated 2013).

Regarding `CC(=O)O[C@@]12CO[C@@H]1C[C@H](O)[C@@]1(C)C(=O)[C@H](O)C3=C(C)[C@@H](OC(=O)[C@H](O)[C@@H](NC(=O)OC(C)(C)C)c4ccccc4)C[C@@](O)([C@@H](OC(=O)c4ccccc4)[C@H]21)C3(C)C` [docetaxel], in data set [1] (water), the Solubility in water was 10 to 25 µg/mL.

For `C[C@@H]1[C@H](O)[C@@H](C)/C=C/C=C/C=C/C=C/C=C/C=C/C=C/[C@H](O[C@@H]2O[C@H](C)[C@@H](O)[C@H](N)[C@@H]2O)C[C@@H]2O[C@](O)(C[C@@H](O)C[C@@H](O)[C@H](O)CC[C@@H](O)C[C@@H](O)CC(=O)O[C@H]1C)C[C@H](O)[C@H]2C(=O)O` (relative stereo) [amphotericin B, [1R-(1R*,3S*,5R*,6R*,9R*,11R*,15S*,16R*,17R*,18S*,19E,21E,23E,25E,27E,29E,31E,33R*,35S*,36R*,37S,)]-33-[(3-amino-3,6-dideoxy-β-D-mannopyranosyl)oxy]1,3,5,6,9,11,17,37-octahydroxy-15,16,18-trimethyl-13-oxo-14,39-dioxabicyclo-[33.3.1]nonatriaconta-19,21,23,25,27,29,31-heptaene-36-carboxylic acid], in data set [2], the Bioavailability entry is on record as “negligible”. Further, in data set [3] (aqueous solution (pH 7)), the “AmpB solubility in aqueous solution” value is on record as “negligible”. In addition, the “Solubility of AmpB neat powder in simulated GI media” value in data set [3] (simulated gastric and intestinal fluids) is “not soluble”. In addition, in data set [1] (water), the “Solubility of crystalline substance in water” value was “insoluble”. In data set [4], the Cure rate is 97%.

Consider `Clc1ccc(COC(Cn2ccnc2)c2ccc(Cl)cc2Cl)cc1` (centres unmarked) [econazole], for which, in data set [1] (ethanol), the Solubility in ethanol was at most 20000 µg/mL. Besides, in data set [1] (water, 19-66° F.), the Solubility in water is under 1000 µg/mL.
